Reference: US20250073255A1, “USE OF FA-TYPE LIPID COMPOUNDS IN PREPARATION OF NUCLEIC ACID DELIVERY REAGENT AND RELATED PRODUCT” (BEIJING BAISHIKANG PHARMACEUTICAL TECHNOLOGY (BSJPHARMA) …, priority 2021, published 2025)

System: C57BL/6 male mice
Experiment: In vivo delivery study of lipid nucleic acid mixture (oral gavage, RT-qPCR of PGY-sRNA-26 in tissues)
Set-up: species or system mouse
Settings: for overall delivery efficacy: delivering nucleic acids into each tissue and blood tested: 100 μg lipid:10 nmol PGY-sRNA-26, all tissues and blood tested; for oral delivery of single-stranded sRNA nucleic acids into mouse blood / oral delivery of single-stranded sRNA nucleic acids into mouse brain tissue / oral delivery of single-stranded sRNA nucleic acids into mouse femur / oral delivery of single-stranded sRNA nucleic acids into mouse heart tissue / oral delivery of single-stranded sRNA nucleic acids into mouse intestinal tissue / oral delivery of single-stranded sRNA nucleic acids into mouse kidney tissue / oral delivery of single-stranded sRNA nucleic acids into mouse liver tissue / oral delivery of single-stranded sRNA nucleic acids into mouse lung tissue / oral delivery of single-stranded sRNA nucleic acids into mouse spleen tissue / oral delivery of single-stranded sRNA nucleic acids into mouse stomach tissue: 100 μg lipid:10 nmol PGY-sRNA-26, sampled after 12 hours; for oral delivery of single-stranded sRNA nucleic acids into mouse heart tissue: vs free uptake group; for oral delivery of single-stranded sRNA nucleic acids into mouse intestinal tissue: intestine
Experimental: 10 nmol of small RNA (as shown in Table 2) was dissolved in 400 μl of DEPC-treated water in a glass tube, 10 μl of the corresponding lipid stock solution was added such that the lipid mass in the system was 100 μg. The mixture was mixed thoroughly, heated in a 90° C. water bath for 15 minutes, and then cooled naturally to obtain the lipid nucleic acid mixture of lipid and small RNA.
C57BL/6 male mice, approximately 6 weeks old, weighing […], were obtained from Beijing Vital River Laboratory Animal Technology Co., Ltd. The mice were housed in the SPF-grade animal facility at the Animal Center of the Institute of Basic Medical Sciences, Chinese Academy of Medical Sciences. The mice were fasted for 12 hours before gavage administration.
The lipid nucleic acid mixture was prepared following the method described in Example 2. The resultant lipid nucleic acid mixture was orally administered to each mouse at a dose of 100 μg lipid:10 nmol single-stranded 3-methylated small RNA PGY-sRNA-26.
• 1) Blank group (n=4): mice were administered with 500 μl saline by gavage, this group served as a blank control; • 2) Free uptake group (n=4): mice were directly administered with small RNA PGY-sRNA-26 solution (10 nmol/mouse, 500 l) by gavage, this group served as a negative control; • 3) Lipid-treated group (n=4): mice were administered with 500 μl lipid nucleic acid mixture prepared in step 2 by gavage.
After 12 hours of gavage administration, 500 μl blood from the eyeball of each mouse was sampled, added to 1.5 ml Trizol Reagent LS (purchased from Invitrogen), thoroughly mixed for lysis. 3 ml of Trizol Reagent LSwas added to tissue samples and homogenized for complete lysis, wherein the sampled tissues include heart, liver, spleen, lung, kidney, stomach, intestine, brain, blood, femur, pancreas. RNAwas extracted from 1 ml of the blood or the tissue lysate following the steps below: • Centrifuge at 4° C., 12,000 rpm for 5 min, discard the precipitate, transfer Trizol to a new centrifuge tube; • Add chloroform at 200 μL chloroform/mL Trizol, shake well, stand at room temperature for 5 min; • Centrifuge at 4° C., 12,000 rpm for 15 min; • Take the upper aqueous phase to another centrifuge tube, add isopropanol at 0.4 mL isopropanol/mL Trizol, mix well, and stand at low temperature for 10-20 min; • Centrifuge at 4° C., 12,000 rpm for 15 min, discard the supernatant, RNA precipitated at the bottom of the tube; • Add 1 mL of 75% ethanol, gently shake the centrifuge tube, suspend the precipitate; • Centrifuge at 4° C., 12,000 rpm for 15 min, discard the supernatant, add 1 mL of 75% ethanol, gently shake the centrifuge tube, suspend the precipitate; • Centrifuge at 4° C., 12,000 rpm for 15 min, discard the supernatant, air-dry at room temperature, dissolve RNA samples in 50 μL RNase-free H2O, measure OD value to quantify RNA concentration. 3.3 Reverse Transcription of sRNA to cDNA:
sRNA was reverse transcribed to cDNA using the High-Capacity cDNA Reverse Transcription Kit (Applied Biosystems, cat. no. 4368813) by stem-loop method (see, e.g., “Real-time quantification of microRNAs by stem-loop RT-PCR, Nucleic Acids Res. 2005 Nov. 27; 33(20):e179”, incorporated herein by reference). The reverse transcription system is as follows: Template RNA (200 ng/μL) 10 μL, 10×RT Buffer 2.0 μL, 25×dNTP Mix (100 mM) 0.8 μL, U6 RT stem-loop primer (10 μM) 2.0 μL, PGY-sRNA-26 RT stem-loop primer (10 μM) 2.0 μL, MultiScribe™ Reverse Transcriptase (50 U/μL) 1.0 μL, RNAse Inhibitor (40 U/μL) 1.0 μL, nuclease-free H2O 1.2 μL. After transient centrifugation, the reverse transcription system was placed in a PCR machine with the following reaction conditions: (1) 25° C., 10 min; (2) 37° C., 120 min; (3) 85° C., 5 min; (4) 4° C., stop reaction. After the reaction, add 20 μL RNAse-free ddH2O, adjust the final volume to 40 μL. […]

| SMILES | overall delivery efficacy: delivering nucleic acids into each tissue and blood tested | oral delivery of single-stranded sRNA nucleic acids into mouse blood | oral delivery of single-stranded sRNA nucleic acids into mouse brain tissue | oral delivery of single-stranded sRNA nucleic acids into mouse femur | oral delivery of single-stranded sRNA nucleic acids into mouse heart tissue | oral delivery of single-stranded sRNA nucleic acids into mouse intestinal tissue | oral delivery of single-stranded sRNA nucleic acids into mouse kidney tissue | oral delivery of single-stranded sRNA nucleic acids into mouse liver tissue | oral delivery of single-stranded sRNA nucleic acids into mouse lung tissue | oral delivery of single-stranded sRNA nucleic acids into mouse spleen tissue | oral delivery of single-stranded sRNA nucleic acids into mouse stomach tissue |
| --- | --- | --- | --- | --- | --- | --- | --- | --- | --- | --- | --- |
| CC/C=C\CC1C(=O)CCC1CC(=O)O (stereo not drawn) [Lipid 527] | best delivery efficacy | can effectively orally deliver | can effectively orally deliver | can effectively orally deliver | can effectively orally deliver | can effectively orally deliver | can effectively orally deliver | can effectively orally deliver | can effectively orally deliver | can effectively orally deliver | can effectively orally deliver |
| CCCCCCCC(C)C [Lipid 528, 2-methylnonane] | best delivery efficacy | can effectively orally deliver | can effectively orally deliver | can effectively orally deliver | can effectively orally deliver | can effectively orally deliver | can effectively orally deliver | can effectively orally deliver | can effectively orally deliver | can effectively orally deliver | can effectively orally deliver |
| O=C(O)CCCCCCCCCCCCCCC(=O)O [Lipid 529, hexadecanedioic acid] | best delivery efficacy | can effectively orally deliver | can effectively orally deliver | can effectively orally deliver | can effectively orally deliver | can effectively orally deliver | can effectively orally deliver | can effectively orally deliver | can effectively orally deliver | can effectively orally deliver | can effectively orally deliver |
| NC(CCCC(=O)O)C(=O)O (stereo not drawn) [Lipid 530, 2-aminohexanedioic acid] | best delivery efficacy | can effectively orally deliver | can effectively orally deliver | can effectively orally deliver | can effectively orally deliver | can effectively orally deliver | can effectively orally deliver | can effectively orally deliver | can effectively orally deliver | can effectively orally deliver | can effectively orally deliver |
| COc1cc(CNC(=O)CCCC/C=C/C(C)C)ccc1O [Lipid 537] | best delivery efficacy | can effectively orally deliver | can effectively orally deliver | can effectively orally deliver | can effectively orally deliver | can effectively orally deliver | can effectively orally deliver | can effectively orally deliver | can effectively orally deliver | can effectively orally deliver | can effectively orally deliver |
| CCCCC/C=C\C/C=C\C/C=C\C/C=C\C/C=C\CCC(=O)O [Lipid 542, (4Z,7Z,10Z,13Z,16Z)-docosa-4,7,10,13,16-pentaenoic acid] | best delivery efficacy | can effectively orally deliver | can effectively orally deliver | can effectively orally deliver | can effectively orally deliver | can effectively orally deliver | can effectively orally deliver | can effectively orally deliver | can effectively orally deliver | can effectively orally deliver | can effectively orally deliver |
